Experimental data: publication PMC7868389, “Identification and Functional Characterization of Two Putative Pheromone Receptors in the Potato Tuber Moth, Phthorimaea operculella” (Frontiers in Physiology, 2021)

Assays:
Type in all cases: cell-based
[1] = molecular target: T1, PopeOR1 (Phthorimaea operculella, UniProt A0A8K1YT58); assay: two-electrode voltage clamp in Xenopus oocytes
T1 construct: full-length ORF, co-expressed with PopeOrco in Xenopus oocytes; with PopeOrco
T1 sequence (A0A8K1YT58 1-435): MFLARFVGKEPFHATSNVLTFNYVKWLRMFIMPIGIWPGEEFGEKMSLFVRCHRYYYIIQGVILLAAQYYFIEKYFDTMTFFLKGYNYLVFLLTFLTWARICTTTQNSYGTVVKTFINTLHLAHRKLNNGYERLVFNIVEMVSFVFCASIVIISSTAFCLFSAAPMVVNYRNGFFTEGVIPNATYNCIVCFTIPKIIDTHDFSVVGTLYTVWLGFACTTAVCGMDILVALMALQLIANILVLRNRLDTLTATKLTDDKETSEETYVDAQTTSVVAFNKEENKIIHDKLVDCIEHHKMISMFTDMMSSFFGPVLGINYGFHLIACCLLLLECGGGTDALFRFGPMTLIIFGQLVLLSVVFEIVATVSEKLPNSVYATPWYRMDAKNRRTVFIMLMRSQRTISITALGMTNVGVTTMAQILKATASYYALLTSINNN
T1 sequence (A0A8K1YT59 1-473 partner): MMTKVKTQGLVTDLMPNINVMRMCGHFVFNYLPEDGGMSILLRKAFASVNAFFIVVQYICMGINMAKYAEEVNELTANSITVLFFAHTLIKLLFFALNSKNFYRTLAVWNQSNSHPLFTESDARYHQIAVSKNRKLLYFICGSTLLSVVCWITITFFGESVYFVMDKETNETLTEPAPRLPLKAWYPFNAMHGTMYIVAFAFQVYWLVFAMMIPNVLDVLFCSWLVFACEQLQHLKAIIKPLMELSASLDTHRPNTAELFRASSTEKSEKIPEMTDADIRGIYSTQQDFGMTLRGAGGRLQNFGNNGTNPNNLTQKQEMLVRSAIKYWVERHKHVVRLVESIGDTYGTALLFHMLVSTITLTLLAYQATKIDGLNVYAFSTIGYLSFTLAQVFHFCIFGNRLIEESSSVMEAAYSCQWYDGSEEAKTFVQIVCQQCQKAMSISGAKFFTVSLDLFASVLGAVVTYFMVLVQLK

[2] = molecular target: T2, PopeOR3 (Phthorimaea operculella, UniProt A0A8K1YT60); assay: two-electrode voltage clamp in Xenopus oocytes, weak current at […]
T2 construct: full-length ORF, co-expressed with PopeOrco in Xenopus oocytes; with PopeOrco
T2 sequence (A0A8K1YT60 1-404): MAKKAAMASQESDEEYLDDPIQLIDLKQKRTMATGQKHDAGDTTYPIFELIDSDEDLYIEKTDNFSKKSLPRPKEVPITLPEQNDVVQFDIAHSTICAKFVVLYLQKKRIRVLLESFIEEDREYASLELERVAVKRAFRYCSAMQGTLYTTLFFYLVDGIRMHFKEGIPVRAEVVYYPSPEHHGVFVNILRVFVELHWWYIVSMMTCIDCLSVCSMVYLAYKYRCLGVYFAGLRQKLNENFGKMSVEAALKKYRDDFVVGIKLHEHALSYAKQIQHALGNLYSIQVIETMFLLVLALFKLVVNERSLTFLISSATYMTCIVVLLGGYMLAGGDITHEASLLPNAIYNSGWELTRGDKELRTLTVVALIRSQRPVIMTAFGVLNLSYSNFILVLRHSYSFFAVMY
T2 sequence (A0A8K1YT59 1-473 partner): T1 sequence (A0A8K1YT59 1-473 partner)

[3] = molecular target: T2, PopeOR3; assay: two-electrode voltage clamp in Xenopus oocytes

Compound	EC50 [1] [µM]	two-electrode voltage clamp in Xenopus oocytes, weak current at 10^-4 M [2] [nA]	EC50 [3] [µM]
CCCCC/C=C\C/C=C/CCCOC(C)=O [(E, Z)-4,7–13: OAc, trans-4, cis-7-tridecadienyl acetate]	73	29.41 ± 6.87	–
CC/C=C\C/C=C\C/C=C/CCCOC(C)=O [(E, Z, Z)-4,7,10–13: OAc, tran-4, cis-7, cis-10-tridecatrienyl acetate]	39	–	89
